“And” between values parts separate entries of the source, which are not always exact repeats. Equal entries are not always repeated.
Columns and labels:
Assay in all cases: Post-emergence glasshouse herbicide test, visual phytotoxicity
Format in all cases: in vivo
Settings in all cases: 13 days
[1] = system: Abutilon threophrasti (ABUTH)
Description: (§1) Seeds of Setaria faberi (SETFA), Echinochloa crus-galli (ECHCG), Digitaria sanguinalis (DIGSA), Lolium perenne (LOLPE), Alopecurus myosuroides (ALOMY), Chenopodium album (CHEAL), Ipomoea hederacea (IPOHE), Stellaria media (STEME), Abutilon threophrasti (ABUTH) and Amaranthus retroflexus (AMARE) were sown in standard sterilised soil in pots. After cultivation for 8 days under controlled conditions in a glasshouse (at 24/19° C., day/night; 16 hours light; no humidity control), the plants were sprayed at 500 l/Ha with an aqueous spray solution derived from the formulation of the technical active ingredients in a small amount of acetone and a solvent and emulsifier mixture referred to as IF50 (11.12% Emulsogen EL360 TM+44.44% N-methylpyrrolidone+44.44% Dowanol DPM glycol ether), to create a 50 g/l solution which was then diluted using 0.2% Genapol X080 (CAS Number: 9043-30-5) as diluent to give the desired final dose of test compound.
(§2) Where active ingredients were applied as mixtures, aqueous spray solutions were prepared as above, containing both active ingredients.
(§3) The test plants were then grown under controlled conditions in a glasshouse (at 24/18° C., day/night; 15 hours light; 50% humidity) and watered twice daily. After 13 days, the test was evaluated visually for percentage phytotoxicity to the plants (where 100=total damage to plant; 0=no damage to plant; and NC=not captured) when compared to control untreated plants. Two to four replicates were applied for each treatment in a randomised block test design.
(§4) 22., E=X+Y−(X*Y/100), where • X=average percent phytotoxicity of herbicide A when applied at a certain rate • Y=average percent phytotoxicity using herbicide B when applied at a certain rate • E=the expected effect of the mixture of herbicides A and B as calculated from the Colby formula.

[2] = system: Ipomoea hederacea (IPOHE)
Description: as §1, §2, §3, §4

Setaria faberi (SETFA) = system: Setaria faberi (SETFA)
Description: as §1, §2, §3, §4

Lolium perenne (LOLPE) = system: Lolium perenne (LOLPE)
Description: as §1, §2, §3, §4

[3] = system: Alopecurus myosuroides (ALOMY)
Description: as §1, §2, §3, §4

[4] = system: Chenopodium album (CHEAL)
Description: as §1, §2, §3, §4

[5] = system: Amaranthus retroflexus (AMARE)
Description: as §1, §2, §3, §4

Stellaria media (STEME) = system: Stellaria media (STEME)
Description: as §1, §2, §3, §4

[6] = system: Echinochloa crus-galli (ECHCG)
Description: as §1, §2, §3, §4

[7] = system: Digitaria sanguinalis (DIGSA)
Description: as §1, §2, §3, §4

SMILES: CC1(C)CN(Cc2ccccc2NS(=O)(=O)C(F)(F)F)C1=O [B-IV]
- percentage phytotoxicity ABUTH ([1]; 31.25 g/ha): 15%
- percentage phytotoxicity ABUTH ([1]; 62.5 g/ha): 3%
- percentage phytotoxicity ABUTH ([1]; 125 g/ha): 13%
- percentage phytotoxicity ABUTH ([1]; 250 g/ha): 45%
- percentage phytotoxicity ABUTH ([1]; 500 g/ha): 60%
- percentage phytotoxicity IPOHE ([2]; 31.25 g/ha): 75%
- percentage phytotoxicity IPOHE ([2]; 62.5 g/ha): 35%
- percentage phytotoxicity IPOHE ([2]; 125 g/ha): 88%
- percentage phytotoxicity IPOHE ([2]; 250 g/ha): 89%
- percentage phytotoxicity IPOHE ([2]; 500 g/ha): 93%
- percentage phytotoxicity SETFA (Setaria faberi (SETFA); 31.25 g/ha): 0%
- percentage phytotoxicity SETFA (Setaria faberi (SETFA); 62.5 g/ha): 0%
- percentage phytotoxicity SETFA (Setaria faberi (SETFA); 125 g/ha): 23% and 22%
- percentage phytotoxicity SETFA (Setaria faberi (SETFA); 250 g/ha): 48%
- percentage phytotoxicity SETFA (Setaria faberi (SETFA); 500 g/ha): 50%
- percentage phytotoxicity LOLPE (Lolium perenne (LOLPE); 31.25 g/ha): 0%
- percentage phytotoxicity LOLPE (Lolium perenne (LOLPE); 62.5 g/ha): 0%
- percentage phytotoxicity LOLPE (Lolium perenne (LOLPE); 125 g/ha): 33%
- percentage phytotoxicity LOLPE (Lolium perenne (LOLPE); 250 g/ha): 48%
- percentage phytotoxicity LOLPE (Lolium perenne (LOLPE); 500 g/ha): 80%
- percentage phytotoxicity ALOMY ([3]; 31.25 g/ha): 0%
- percentage phytotoxicity ALOMY ([3]; 62.5 g/ha): 0%
- percentage phytotoxicity ALOMY ([3]; 125 g/ha): 23%
- percentage phytotoxicity ALOMY ([3]; 250 g/ha): 50%
- percentage phytotoxicity ALOMY ([3]; 500 g/ha): 73%
- percentage phytotoxicity CHEAL ([4]; 31.25 g/ha): 15%
- percentage phytotoxicity CHEAL ([4]; 62.5 g/ha): 30%
- percentage phytotoxicity CHEAL ([4]; 125 g/ha): 15%
- percentage phytotoxicity CHEAL ([4]; 250 g/ha): 20%
- percentage phytotoxicity CHEAL ([4]; 500 g/ha): 58%
- percentage phytotoxicity AMARE ([5]; 31.25 g/ha): 73%
- percentage phytotoxicity AMARE ([5]; 62.5 g/ha): 80%
- percentage phytotoxicity AMARE ([5]; 125 g/ha): 83%
- percentage phytotoxicity AMARE ([5]; 250 g/ha): 85%
- percentage phytotoxicity AMARE ([5]; 500 g/ha): 83%
- percentage phytotoxicity STEME (Stellaria media (STEME); 31.25 g/ha): 68%
- percentage phytotoxicity STEME (Stellaria media (STEME); 62.5 g/ha): 78%
- percentage phytotoxicity STEME (Stellaria media (STEME); 125 g/ha): 80%
- percentage phytotoxicity STEME (Stellaria media (STEME); 250 g/ha): 80%
- percentage phytotoxicity STEME (Stellaria media (STEME); 500 g/ha): 83%
- percentage phytotoxicity ECHCG ([6]; 31.25 g/ha): 0%
- percentage phytotoxicity ECHCG ([6]; 62.5 g/ha): 0%
- percentage phytotoxicity ECHCG ([6]; 125 g/ha): 45%
- percentage phytotoxicity ECHCG ([6]; 250 g/ha): 53%
- percentage phytotoxicity ECHCG ([6]; 500 g/ha): 63%
- percentage phytotoxicity DIGSA ([7]; 31.25 g/ha): 0%
- percentage phytotoxicity DIGSA ([7]; 62.5 g/ha): 0%
- percentage phytotoxicity DIGSA ([7]; 125 g/ha): 18%
- percentage phytotoxicity DIGSA ([7]; 250 g/ha): 38%
- percentage phytotoxicity DIGSA ([7]; 500 g/ha): 70%

SMILES: COc1c(Cl)ccc(-c2nc(C(=O)OCc3ccccc3)c(Cl)c(N)c2F)c1F [B-I]
- percentage phytotoxicity ABUTH ([1]; 0.625 g/ha): 78%
- percentage phytotoxicity ABUTH ([1]; 1.25 g/ha): 80%
- percentage phytotoxicity ABUTH ([1]; 2.5 g/ha): 83%
- percentage phytotoxicity ABUTH ([1]; 5 g/ha): 90%
- percentage phytotoxicity ABUTH ([1]; 10 g/ha): 85%
- percentage phytotoxicity IPOHE ([2]; 0.625 g/ha): 53%
- percentage phytotoxicity IPOHE ([2]; 1.25 g/ha): 58%
- percentage phytotoxicity IPOHE ([2]; 2.5 g/ha): 58%
- percentage phytotoxicity IPOHE ([2]; 5 g/ha): 63%
- percentage phytotoxicity IPOHE ([2]; 10 g/ha): 75%
- percentage phytotoxicity SETFA (Setaria faberi (SETFA); 0.625 g/ha): 0%
- percentage phytotoxicity SETFA (Setaria faberi (SETFA); 1.25 g/ha): 5%
- percentage phytotoxicity SETFA (Setaria faberi (SETFA); 2.5 g/ha): 0%
- percentage phytotoxicity SETFA (Setaria faberi (SETFA); 5 g/ha): 0%
- percentage phytotoxicity SETFA (Setaria faberi (SETFA); 10 g/ha): 5%
- percentage phytotoxicity LOLPE (Lolium perenne (LOLPE); 0.625 g/ha): 0%
- percentage phytotoxicity LOLPE (Lolium perenne (LOLPE); 1.25 g/ha): 10%
- percentage phytotoxicity LOLPE (Lolium perenne (LOLPE); 2.5 g/ha): 0%
- percentage phytotoxicity LOLPE (Lolium perenne (LOLPE); 5 g/ha): 0%
- percentage phytotoxicity LOLPE (Lolium perenne (LOLPE); 10 g/ha): 0%
- percentage phytotoxicity ALOMY ([3]; 0.625 g/ha): 0%
- percentage phytotoxicity ALOMY ([3]; 1.25 g/ha): 0%
- percentage phytotoxicity ALOMY ([3]; 2.5 g/ha): 0%
- percentage phytotoxicity ALOMY ([3]; 5 g/ha): 0%
- percentage phytotoxicity ALOMY ([3]; 10 g/ha): 5%
- percentage phytotoxicity CHEAL ([4]; 0.625 g/ha): 85%
- percentage phytotoxicity CHEAL ([4]; 1.25 g/ha): 73%
- percentage phytotoxicity CHEAL ([4]; 2.5 g/ha): 83%
- percentage phytotoxicity CHEAL ([4]; 5 g/ha): 91%
- percentage phytotoxicity CHEAL ([4]; 10 g/ha): 93%
- percentage phytotoxicity AMARE ([5]; 0.625 g/ha): 63%
- percentage phytotoxicity AMARE ([5]; 1.25 g/ha): 70%
- percentage phytotoxicity AMARE ([5]; 2.5 g/ha): 80%
- percentage phytotoxicity AMARE ([5]; 5 g/ha): 80%
- percentage phytotoxicity AMARE ([5]; 10 g/ha): 93%
- percentage phytotoxicity STEME (Stellaria media (STEME); 0.625 g/ha): 63%
- percentage phytotoxicity STEME (Stellaria media (STEME); 1.25 g/ha): 65%
- percentage phytotoxicity STEME (Stellaria media (STEME); 2.5 g/ha): 80%
- percentage phytotoxicity STEME (Stellaria media (STEME); 5 g/ha): 85%
- percentage phytotoxicity STEME (Stellaria media (STEME); 10 g/ha): 90%
- percentage phytotoxicity ECHCG ([6]; 0.625 g/ha): 0%
- percentage phytotoxicity ECHCG ([6]; 1.25 g/ha): 8%
- percentage phytotoxicity ECHCG ([6]; 2.5 g/ha): 0%
- percentage phytotoxicity ECHCG ([6]; 5 g/ha): 0%
- percentage phytotoxicity ECHCG ([6]; 10 g/ha): 10%
- percentage phytotoxicity DIGSA ([7]; 0.625 g/ha): 0%
- percentage phytotoxicity DIGSA ([7]; 1.25 g/ha): 8%
- percentage phytotoxicity DIGSA ([7]; 2.5 g/ha): 0%
- percentage phytotoxicity DIGSA ([7]; 5 g/ha): 0%
- percentage phytotoxicity DIGSA ([7]; 10 g/ha): 0%

— patent publication US20230284620A1, “MIXTURES OF PYRIDAZINES AS HERBICIDAL COMPOSITIONS” (SYNGENTA CROP PROTECTION AG, priority 2020, published 2023)
